Read-outs that look alike come from different tables or passages of the source. Marks after values point to notes of the source that are not given here.
Experiment: Pharmacokinetics study in rabbits after oral Panax notoginseng extract with or without Borneol (plasma, SPE-HPLC-MS)
Format: in vivo, New Zealand rabbits
Details: for Cmax / Tmax / CL/F / half-life / AUC(0-inf) / AUC(0-t): New Zealand, rabbit, plasma; for CL/F: read-out: CL/F; for half-life: read-out: t 1/2β; for AUC(0-inf) / AUC(0-t): po
Description: Liquid chromatography was carried out on an Agilent 1100 HPLC system with an auto sampler, a quaternary pump and a vacuum degasser (Waldoboro, Frankfurt, Germany). Operations were controlled by Agilent Chemstation 4.2 software (Littleforts, Philadelphia, USA). Separations were achieved on a reversed-phase HPLC column (Zorbax SB-C18 150 × 2.1 mm, 5.0 μm particle size). A solution of acetonitrile and water (V : V, 20 : 80) with 0.1% (V : V) ammonium formate was used as the mobile phase. The flow rate was set at 0.3 mL·min^−1 and the column temperature was 25°C. Under these conditions, NGR1, GRg1, and GRe in plasma samples were separated efficiently without any interferences.
MS^n detection was performed on an Agilent SL trap MS system (Waldoboro, Frankfurt, Germany). The ion source-dependent (electrospray ionization) conditions were the same for all analyses with a spraying voltage of −4500 V in the negative ion mode. The pressure of the nebulizing gas (nitrogen) was set at 35 p.s.i. The flow rate of the drying gas (nitrogen) was set at 7.0 L·min^−1 with the temperature of 325°C. The collision gas (He) for the MS^n mode at trap was set at flow of 4 (instrument unit). The voltage of the capillary was set at 4000 V, and its end plate offset was −500 V. Scan range was from 500 to 1500 m/z.
Frozen plasma and tissue samples were thawed in a water bath at 37°C and were then vortexed followed by centrifuging at 5000 r·min^−1 for 5 min. An aliquot of 1.0 mL of the supernatant from each sample was loaded onto C18 Bond Elute Solid phase extraction (SPE) cartridges (1000 mg, 1 cc reservoir, Varian, Harbor City, CA, USA) pretreated with 2.0 mL hexane, isopropanol, methanol, and water, sequentially. The SPE cartridges were then washed with 1.0 mL water, 20% methanol/water solution, 40% methanol/water solution, and 60% methanol/water solution, sequentially. Finally, analytes were eluted twice with 1.0 mL of 70% methanol/water solution. The eluant was evaporated to dryness under nitrogen. The residues were then reconstituted in 1.0 mL mobile phase. An aliquot of 10 μL was injected into the LC-MS system.
Eighteen rabbits were randomly divided into three groups of 6 subjects and were orally given 3.0 mL·kg^−1 normal saline, 3.0 mL·kg^−1 Panax notoginseng extract, and 3.0 mL·kg^−1 Panax notoginseng extract combined with Borneol, respectively. Plasma samples were collected in heparinized tubes from the central ear artery at 0.0, 5.0, 10.0, 20.0, 30.0, 45.0, 60.0, 75.0, 90.0, 120.0, 180.0, 300.0 and 480.0 min after dose. After each sampling, the same volume of 0.9% saline solution was injected from the ear vein to compensate the loss of blood. The plasma obtained was frozen at −70°C for storage and was processed prior to analysis with the proposed method as described in Section 2.6.
Statistical analysis of the biological data was performed using the Student's t-test. The drug analysis system 2.0 (DAS 2.0, T.C.M., Shanghai, China) was used to calculate the pharmacokinetic parameters, such as the area under curve (AUC), the maximum plasma concentration (C max), the time needed to reach the maximum plasma concentration (t max) and the half-life of absorption, and distribution and elimination (t 1/2Ka, t 1/2α, t 1/2β).

[1] = oral 3.0 mL·kg^−1 Panax notoginseng extract
[2] = oral 3.0 mL·kg^−1 Panax notoginseng extract combined with Borneol

Cmax [1]: 1920 ± 220 ng/mL
Tmax [1]: 45 min
Cmax [2]: 3040 ± 240 ng/mL
Tmax [2]: 45 min
CL/F [2]: 143 ± 54 mL/min/kg
half-life [2]: 69.3 ± 15.2 min
CL/F [1]: 150 ± 30 mL/min/kg
half-life [1]: 69.3 ± 5.8 min
AUC(0-inf) [1]: 8910 ng·h/mL
AUC(0-t) [1]: 7080 ng·h/mL
AUC(0-inf) [2]: 23300 ng·h/mL
AUC(0-t) [2]: 8750 ng·h/mL
K 10 [1]: 0.007 ± 0.003 min⁻¹
K 12 [1]: 0.012 ± 0.004 min⁻¹
K 21 [1]: 0.011 ± 0.005 min⁻¹
K a [1]: 0.025 ± 0.004 min⁻¹
T lag [1]: 0 ± 0 min
V/F [1]: 20.0 ± 4.7 L/kg
t 1/2Ka [1]: 27.7 ± 3.7 min
t 1/2α [1]: 35.0 ± 1.9 min
α [1]: 0.020 ± 0.004 min⁻¹
β [1]: 0.010 ± 0.002 min⁻¹
K 10 [2]: 0.005 ± 0.001 min⁻¹
K 12 [2]: 0.022 ± 0.005** min^−1
K 21 [2]: 0.011 ± 0.003 min⁻¹
K a [2]: 0.034 ± 0.003** min^−1
T lag [2]: 0.61 ± 0.47 min
V/F [2]: 31.1 ± 6.9 L/kg
t 1/2Ka [2]: 20.3 ± 4.2 min
t 1/2α [2]: 25.2 ± 2.4 min
α [2]: 0.027 ± 0.008 min⁻¹
β [2]: 0.010 ± 0.001 min⁻¹
Compound: CC(C)=CCC[C@](C)(O[C@@H]1O[C@H](CO)[C@@H](O)[C@H](O)[C@H]1O)[C@H]1CC[C@]2(C)[C@@H]1[C@H](O)C[C@@H]1[C@@]3(C)CC[C@H](O)C(C)(C)[C@@H]3[C@@H](O[C@@H]3O[C@H](CO)[C@@H](O)[C@H](O)[C@H]3O[C@@H]3O[C@@H](C)[C@H](O)[C@@H](O)[C@H]3O)C[C@]12C [GRe, ginsenoside Re]

Reference: PMC3626250, “Effects of Borneol on Pharmacokinetics and Tissue Distribution of Notoginsenoside R1 and Ginsenosides Rg1 and Re in Panax notoginseng in Rabbits” (Journal of Analytical Methods in Chemistry, 2013)
